Two compounds from PMC4105567, “Aurora Kinases as Druggable Targets in Pediatric Leukemia: Heterogeneity in Target Modulation Activities and Cytotoxicity by Diverse Novel Therapeutic Agents” (PLoS ONE, 2014) can be followed below.

Read-outs that look alike come from different tables or passages of the source.

The test system of one test is Bone Marrow Stroma. As to the kind of experiment: Cytotoxicity assay, bone marrow stroma. Format: cell-based, human. To be noted: bone marrow stroma (control for non-leukemia cytotoxicity), four days in culture, ± SD, three experiments. The protocol: (§1) For cytotoxicity profiling of Aurora kinase inhibitors against leukemia cell lines, inhibitors or vehicle control (DMSO, Sigma-Aldrich) were diluted in 100 µl of Opti-MEM per well in 96 well plates (Grenier Bio-One, Monroe, North Carolina) in triplicate at final concentrations ranging from 1×10^−6 to 10 µM. 1×10^4 cells per well were seeded and plates were incubated for 4 days. Following incubation for 4 days, cell survival was quantified by Alamar blue assay (Invitrogen) or automated inverted microscopy using the Celigo Cell Cytometer (Cyntellect, San Diego, California). […] During this period of incubation, the absorbance at 570–620 nm was measured (Opsys MR Plate Reader, Dynex Technologies, Chantilly, Virginia) at various time points, depending on the cell line or sample. Percent survival was calculated by comparing the absorbance ratio of the test well to the control well multiplied by 100%, as indicated in the following formula: […]
(§2) For automated inverted microscopy, the number of cells in each well was determined using the direct cell counting application as described previously. Briefly, following adjustment of image acquisition settings for bright-field imaging, the wells containing cells and appropriate dilutions of inhibitors were individually scanned. Based on these images, analysis parameters, including intensity threshold and cell diameter, were modified for optimal inclusion of viable cells in treated and control wells. These parameters were applied for subsequent replicates involving the same leukemia cell line or sample. The percent survival was then calculated as a ratio of the number of cells in treated wells to the number of cells in control wells multiplied by 100%. Given that Aurora kinase inhibitors interfere with cytokinesis, cells that are committed to death may still contain enlarging but intact cytoplasmic content before the eventual loss of cytoplasmic membrane integrity. The accuracy of Alamar blue assay may be, in theory, affected by the timing of these events.

Another test relates to C1 B-ALL cell line. As to the kind of experiment: Cytotoxicity assay, C1. Type of test: cell-based, human. To be noted: four days in culture, Alamar blue assay or automated microscopy, ± SD, three experiments. The protocol: (§3) Cell lines were cultured in Opti-MEM medium (Gibco, Life Technologies Corporation, Burlington, Ontario) supplemented with 10% heat inactivated fetal bovine serum (FBS) (Gibco), 100 units/ml penicillin and 100 units/ml streptomycin (Gibco) and 0.05 mM 2-mercaptoethanol (Sigma-Aldrich, Oakville, Ontario) in T25 flasks (Nalge Nunc, Rochester, New York) or T75 flasks (Corning Incorporated, Corning, New York). All cell cultures were maintained at 37°C in a humidified incubator with 5% CO2.
as §1, §2

For the next test, the system named is UOCB1 B-ALL cell line. As to the kind of experiment: Cytotoxicity assay, UOCB1. Format: cell-based, human. The settings on record: four days in culture, Alamar blue assay or automated microscopy, ± SD, three experiments. The protocol:
as §3, §1, §2

Test [1] relates to Patient #3 AML/CML primary leukemia cells. As to the kind of experiment: Cytotoxicity assay, primary sample Patient #3. Type of test: cell-based, human. To be noted: four days in culture, Alamar blue assay or automated microscopy, one complete study. The protocol:
(§4) These include B-ALL (Patient #1), relapsed AML (Patient #2), AML/CML (Patient #3), infant ALL (Patient #4), and initial ALL presenting with secondary AML (Patient #5). […] The diluted sample was then layered on a Ficoll-Paque (GE Healthcare, Piscataway, New Jersey) gradient at a 1∶2 ratio of Ficoll to diluted sample. Samples were then centrifuged 1800 rpm for 20 minutes at room temperature. The buffy coat was removed with a pipette and transferred to a new centrifuge tube and diluted with PBS. After an additional centrifugation at 1200 rpm, the white blood cell pellet was washed with PBS and centrifuged one last time. Cells were re-suspended in Opti-MEM and viable cells were counted using trypan blue (Invitrogen, Life Technologies Corporation, Burlington, Ontario) exclusion on a haemocytometer. An identical protocol was followed for the isolation of white blood cells, referred to as “normal lymphocytes” in the following paragraphs, from healthy volunteers. Samples grown in culture for up to six months were cultured in Opti-MEM medium supplemented with 10% heat inactivated FBS, penicillin/streptomycin and 2-mercaptoethanol.
as §1, §2

For test [2], the system named is normal cells versus leukemia cell lines. As to the kind of experiment: Comparison of cytotoxicity IC50 values, normal cells versus leukemia cell lines. Format: cell-based, human. The settings on record: normal lymphocytes and bone marrow stroma versus leukemia cell lines of Table 2. As for the experimental part: as §1, §2
For test [3], the system named is Patient #4 infant leukemia primary cells. As to the kind of experiment: Cytotoxicity assay, primary sample Patient #4. Type of test: cell-based, human. To be noted: four days in culture, Alamar blue assay or automated microscopy, one complete study. The protocol: as §4, §1, §2
Another test has as its system Molm13 AML cell line. As to the kind of experiment: Cytotoxicity assay, Molm13. Type of test: cell-based, human. To be noted: four days in culture, Alamar blue assay or automated microscopy, ± SD, three experiments. The protocol: as §3, §1, §2
Test [4] relates to Patient #2 relapsed AML primary leukemia cells. In words: Cytotoxicity assay, primary sample Patient #2. Type of test: cell-based, human. The settings on record: four days in culture, Alamar blue assay or automated microscopy, one complete study. The protocol: as §4, §1, §2
In a further test the test system is MV4-11 AML cell line. In words: Cytotoxicity assay, MV4-11. To be noted: AML cell line MV4-11, four days in culture, Alamar blue assay or automated microscopy, ± SD, three experiments. Type of test: cell-based, human. As for the experimental part:
as §3, §1, §2

Test [5] deals with Patient #1 B-ALL primary leukemia cells. As to the kind of experiment: Cytotoxicity assay, primary sample Patient #1. To be noted: four days in culture, Alamar blue assay or automated microscopy, one complete study. Format: cell-based, human. The protocol: as §4, §1, §2
The next test deals with Normal Lymphocytes. In words: Cytotoxicity assay, normal lymphocytes. Format: cell-based, human. The settings on record: normal lymphocytes (control for non-leukemia cytotoxicity), four days in culture, ± SD, three experiments. As for the experimental part:
as §4, §1, §2

Another test relates to TIB-202 AML cell line. As to the kind of experiment: Cytotoxicity assay, TIB-202. Type of test: cell-based, human. The settings on record: AML cell line TIB-202, four days in culture, Alamar blue assay or automated microscopy, ± SD, three experiments. The protocol: as §3, §1, §2
A further test concerns KOPN8 B-ALL cell line. In words: Cytotoxicity assay, KOPN8. The settings on record: four days in culture, Alamar blue assay or automated microscopy, ± SD, three experiments. Type of test: cell-based, human. The protocol:
as §3, §1, §2

A further test relates to B1 B-ALL cell line. As to the kind of experiment: Cytotoxicity assay, B1. Format: cell-based, human. The settings on record: four days in culture, Alamar blue assay or automated microscopy, ± SD, three experiments. As for the experimental part:
as §3, §1, §2

The next test deals with CEM T-ALL cell line. In words: Cytotoxicity assay, CEM. Format: cell-based, human. To be noted: four days in culture, Alamar blue assay or automated microscopy, ± SD, three experiments. As for the experimental part:
as §3, §1, §2

The test system of the next test is Molt-3 T-ALL cell line. As to the kind of experiment: Cytotoxicity assay, Molt-3. The settings on record: T-ALL cell line Molt-3, four days in culture, Alamar blue assay or automated microscopy, ± SD, three experiments. Type of test: cell-based, human. The protocol: as §3, §1, §2
The subject of the next test is HL-60 RA APML cell line. As to the kind of experiment: Cytotoxicity assay, HL-60 RA. The settings on record: APML cell line HL-60 RA, four days in culture, Alamar blue assay or automated microscopy, ± SD, three experiments. Type of test: cell-based, human. As for the experimental part:
as §3, §1, §2

The next test deals with NB4 APML cell line. As to the kind of experiment: Cytotoxicity assay, NB4. The settings on record: four days in culture, Alamar blue assay or automated microscopy, ± SD, three experiments. Type of test: cell-based, human. As for the experimental part:
as §3, §1, §2

The subject of the next test is HL-60 APML cell line. As to the kind of experiment: Cytotoxicity assay, HL-60. Format: cell-based, human. The settings on record: APML cell line HL-60, four days in culture, Alamar blue assay or automated microscopy, ± SD, three experiments. As for the experimental part: as §3, §1, §2
Test [6] relates to Patient #5 ALL/AML primary leukemia cells. In words: Cytotoxicity assay, primary sample Patient #5. Format: cell-based, human. The settings on record: primary sample, four days in culture, Alamar blue assay or automated microscopy, one complete study, read-out: IC50, Patient #5 ALL/AML. As for the experimental part: as §4, §1, §2
Another test has as its system Nalm6 B-ALL cell line. In words: Cytotoxicity assay, Nalm6. Type of test: cell-based, human. To be noted: four days in culture, Alamar blue assay or automated microscopy, ± SD, three experiments. The protocol:
as §3, §1, §2

The test system of the next test is SEM B-ALL cell line. In words: Cytotoxicity assay, SEM. Format: cell-based. The settings on record: Homo sapiens, 96 h, four days in culture, Alamar blue assay or automated microscopy, ± SD, three experiments. The protocol:
as §3, §1, §2

On to `COc1cc2c(Nc3ccc(NC(=O)c4ccccc4)cc3)ncnc2cc1OCCCN1CCOCC1` [ZM447439], for which the IC50 in the test with Bone Marrow Stroma turned out to be 2000 ± 400 nM; in the test on C1 B-ALL cell line, 80 ± 20 nM; with UOCB1 B-ALL cell line it was 80 ± 20 nM; in test [1], 10000 nM; in test [3], 7000 nM; with Molm13 AML cell line, 500 ± 300 nM. Moreover, the IC50 is greater than 10000 nM in test [4]; 200 ± 100 nM in the test on MV4-11 AML cell line; 20 nM in test [5]; 6000 ± 800 nM with Normal Lymphocytes; 800 ± 100 nM in the test on TIB-202 AML cell line; 100 ± 70 nM with KOPN8 B-ALL cell line. The IC50 with B1 B-ALL cell line was determined as 1000 ± 50 nM; in the test on CEM T-ALL cell line, 60 ± 30 nM; with Molt-3 T-ALL cell line, 90 ± 10 nM; in the test on HL-60 RA APML cell line, 500 ± 300 nM; with NB4 APML cell line it was 4000 ± 2000 nM; in the test on HL-60 APML cell line it was 1000 ± 100 nM. The IC50 worked out at 9 nM in [6] and 80 ± 4 nM in the test with Nalm6 B-ALL cell line. In [2], the “IC50 values for the normal cells compared with IC50 values for the leukemia cell lines (potential therapeutic window)” value is reported as “lower than the IC50 values for the normal cells, but not as pronounced”.
In the case of `COc1cc(Nc2ncc3c(n2)-c2ccc(Cl)cc2C(c2c(F)cccc2OC)=NC3)ccc1C(=O)O` [MLN8237], the IC50 was greater than 10000 nM with Bone Marrow Stroma (Homo sapiens, 96 h); 3 ± 1 nM in the test with C1 B-ALL cell line (Homo sapiens, 96 h); 0.003 nM in the test on UOCB1 B-ALL cell line (Homo sapiens, UoC-B1, 96 h); 700 nM in [1] (Homo sapiens, 96 h); 4 ± 1 nM with SEM B-ALL cell line; 3000 nM in test [3] (Homo sapiens, 96 h). Moreover, the IC50 with Molm13 AML cell line (Homo sapiens, MOLM-13, 96 h) was found to be 4 ± 2 nM; in test [4] (Homo sapiens, 96 h), 500 nM; in the test on MV4-11 AML cell line (Homo sapiens, 96 h), 4 ± 1 nM; in test [5] (Homo sapiens, 96 h), 6 nM; in the test on Normal Lymphocytes (Homo sapiens, Lymphocyte, 96 h), 5000 ± 2000 nM; in the test on TIB-202 AML cell line (Homo sapiens, 96 h), 0.4 nM. For the same compound, the IC50 with KOPN8 B-ALL cell line (Homo sapiens, KOPN-8, 96 h) is 5 ± 2 nM; in the test with B1 B-ALL cell line (Homo sapiens, 96 h) it was 4 ± 3 nM; with CEM T-ALL cell line (Homo sapiens, 96 h) it was less than 0.001 nM; in the test on Molt-3 T-ALL cell line (Homo sapiens, 96 h), less than 0.001 nM; in the test on HL-60 RA APML cell line (Homo sapiens, 96 h) it was 4 ± 2 nM; in the test with NB4 APML cell line (Homo sapiens, 96 h) it was 60 ± 8 nM. Moreover, the IC50 in the test on HL-60 APML cell line (Homo sapiens, 96 h) was determined as 9 ± 0.9 nM; in test [6] (Homo sapiens, 96 h), 0.1 nM; with Nalm6 B-ALL cell line (Homo sapiens, NALM-6, 96 h) it was 6 ± 3 nM. For the same compound, the “IC50 values for the normal cells compared with IC50 values for the leukemia cell lines (potential therapeutic window)” value in test [2] is recorded as “higher than the IC50 values for the leukemia cell lines”.
